Assay results as given in patent US6153419A, “Method for quantitative determination of 1,5-anhydroglucitol” (Kyowa Hakko Kogyo Co., Ltd., priority 1996, dated 2000).
Read-outs that look alike come from different tables or passages of the source.

How the values were obtained:
Format in all cases: biochemical
[1] = tested on: trehalase derived from Rhodococcus globerulus ATCC 14898; experiment: Example 4: inhibition of trehalase, calibration curve; conditions: pH 7.0, FIG. 8
Method: (§1) A reaction mixture was prepared by adding 10 mU/ml trehalase prepared in Reference Example 2, 0.81 mg/ml 4-aminoantipyrine, 1 mg/ml EMSE, 30 U/ml glucose oxidase, 10 U/ml peroxidase, and a sample containing 1,5-anhydroglucitol at a varied concentration to 100 mM phosphate buffer (pH 7.0). After addition of 10 mg/ml trehalose to the reaction mixture and stirring, the increase in absorbance at 550 nm was measured with a spectrophotometer.
The same procedure as in Example 3 was repeated, except that trehalase derived from Rhodococcus globerulus prepared in Reference Example 3 was used.

[2] = tested on: trehalase derived from Nocardia sp. NK-2067; experiment: Inhibition specificity of the novel trehalase to various sugars, trehalose as substrate; conditions: sugar at 1.75 mM
Method: The enzyme was also examined for inhibition specificity to various sugars at 1.75 mM using trehalose as a substrate.
(§2) Trehalose is dissolved in 100 mM phosphate buffer (pH 5.5) to give a concentration of 12.5 mM.
(§3) Glucose oxidase (Toyobo Co., Ltd., Grade II), peroxidase (Toyobo Co., Ltd., Grade III), 4-aminoantipyrine and phenol are dissolved in water to give final concentrations of 0.04 mg/ml, 0.04 mg/ml, 1.2 mM and 21 mM, respectively.
(§4) To 1 ml of the substrate solution is added 0.02 ml of an enzyme solution, and reaction is carried out at 37° C. for 30 minutes. The reaction is stopped by heating at 100° C. for 3 minutes. To the reaction mixture is added 1 ml of the color-producing reagent, and reaction is carried out at 37° C. for 20 minutes, followed by measurement of the absorbance at 500 nm. A control solution is prepared by using water instead of the enzyme solution in the above procedure.
(§5) The trehalase activity is expressed by unit, one unit being defined as that amount of the enzyme which will hydrolyze 1 μmol of trehalose at 37° C. in one minute. The activity per milliliter of enzyme solution (U/ml) can be calculated from the net difference in absorbance (enzyme solution-control solution) according to the following equation. [formula]

[3] = biological target: trehalase derived from Nocardia sp. NK-2067; experiment: Substrate and inhibitor affinity by Lineweaver-Burk plot; conditions: pH 5.5, Lineweaver-Burk plot
Method: The Km value of the enzyme for trehalose at pH 5.5 as determined by Lineweaver-Burk plot [J. Am. Chem. Soc., 56, 658 (1934)] is 6.7 mM.

[4] = tested on: trehalase derived from Rhodococcus globerulus ATCC 14898; experiment: Test Example 1: specificity of inhibition by 1,5-anhydroglucitol; conditions: for Inhibition (%): test sugar 1 mM, 100 mM phosphate buffer pH 7.0, 10 mg/ml trehalose, 10 minutes
Method: A reaction mixture was prepared by adding 10 mU/ml trehalase prepared in Reference Example 3, 0.81 mg/ml 4-aminoantipyrine, 1 mg/ml EMSE, 30 U/ml glucose oxidase, 10 U/ml peroxidase, and 1 mM test sugar shown in Table 4 to 100 mM phosphate buffer (pH 7.0). After addition of 10 mg/ml trehalose to the reaction mixture and stirring, the change in absorbance at 550 nm was measured with a spectrophotometer.

[5] = tested on: trehalase derived from Nocardia sp. NK-2067; experiment: Example 6: inhibition of trehalase, calibration curve; conditions: pH 7.0, FIG. 9
Method: as §1
The same procedure as in Example 3 was repeated, except that trehalase derived from Nocardia sp. prepared in Example 5 was used.

[6] = tested on: trehalose phosphorylase derived from Catellatospora ferruginea FERM BP-4329; experiment: Example 1: inhibition of the decomposition activity of trehalose phosphorylase; conditions: pH 7.0, FIG. 5
Method: A reaction mixture was prepared by adding 10 mU/ml trehalose phosphorylase derived from Catellatospora ferruginea prepared in Reference Example 1, 2.5 U/ml […] (Beckman Instruments, Inc.), 5 U/ml glucose-6-phosphate dehydrogenase (Sigma Chemical Co.), 10 mM NADP, and a sample containing 1,5-anhydroglucitol at a varied concentration to 100 mM phosphate buffer (pH 7.0). After addition of 10 mg/ml trehalose to the reaction mixture and stirring, the increase in absorbance at 340 nm was measured with a spectrophotometer.

[7] = tested on: trehalose phosphorylase derived from Catellatospora ferruginea FERM BP-4329; experiment: Example 2: inhibition of the synthesis activity of trehalose phosphorylase; conditions: imidazole buffer pH 7.0, FIG. 6
Method: A reaction mixture (3 ml) was prepared by adding 10 mU/ml trehalose phosphorylase prepared in Reference Example 1, 50 mM glucose, 2 ml of a kit for the determination of inorganic phosphorus (Kyowa Medex Co., Ltd.), and a sample containing 1,5-anhydroglucitol at a varied concentration to 50 mM imidazole buffer (pH 7.0). After addition of 50 mM β-glucose-1-phosphate to the reaction mixture and stirring, the increase in absorbance at 550 nm was measured with a spectrophotometer.

[8] = tested on: trehalase derived from Streptomyces aureofaciens ATCC 10762; experiment: Example 3: inhibition of trehalase, calibration curve; conditions: pH 7.0, FIG. 7
Method: as §1

[9] = tested on: trehalase derived from Nocardia sp. NK-2067; experiment: Effect of metal chelating agents, enzyme inhibitors and metal ions on the novel trehalase
Method: The effect of various metal chelating agents, enzyme inhibitors and metal ions on the enzyme was investigated at a concentration of 1 mM.
as §4

[10] = tested on: trehalase derived from Nocardia sp. NK-2067; experiment: Substrate specificity of the novel trehalase (activity on various substrates); conditions: for Relative activity (%): substrate 1.75 mM, 100 mM phosphate buffer pH 5.5, activity on trehalose defined as 100
Method: The activity of the enzyme on various substrates was measured at a substrate concentration of 1.75 mM in 100 mM phosphate buffer (pH 5.5). The results are shown in Table 1 as relative activities, the activity on trehalose being defined as 100.
The enzyme activity is measured in the following manner.
as §2, §3, §4, §5

OC[C@H]1OC[C@H](O)[C@@H](O)[C@@H]1O [1,5-Anhydroglucitol]
Relationship between inhibition rate and concentration [1]: good linear relationship
Inhibition (%) [2]: 80.7%
Ki ([3]; read-out: Ki value of the enzyme): 330 µM
Specificity of inhibition in words ([4]; conclusion from Table 4): inhibited specifically
Inhibition (%) [4]: 45.0%
Relationship between inhibition rate and concentration [5]: good linear relationship
Relationship between inhibition rate and concentration [6]: good linear relationship
Relationship between inhibition rate and concentration [7]: good linear relationship
Relationship between inhibition rate and concentration [8]: good linear relationship

c1cnc2c(c1)ccc1cccnc12 [1,10-Phenanthroline]
Inhibition (%) ([9]; compound at 1 mM): 88.5%
Inhibition of the enzyme in words ([9]; summary of Table 3): inhibited

c1ccc(-c2ccccn2)nc1 [2,2'-Bipyridyl]
Inhibition (%) ([9]; compound at 1 mM): 60.0%
Inhibition of the enzyme in words ([9]; summary of Table 3): inhibited

[Ba+2].[Cl-].[Cl-] [BaCl2]
Inhibition (%) ([9]; compound at 1 mM): 40.7%

[Cl-].[Cl-].[Co+2] [CoCl2]
Inhibition (%) ([9]; compound at 1 mM): 20.4%

O=C(CO)[C@@H](O)[C@H](O)[C@H](O)CO [D-Fructose]
Inhibition (%) [4]: 0%

C[C@H]1OC(O)[C@H](O)[C@@H](O)[C@H]1O (stereo partly drawn) [D-Fucose]
Inhibition (%) [4]: 0%

OC[C@H]1OC(O)[C@H](O)[C@@H](O)[C@H]1O (stereo partly drawn) [D-Galactose]
Inhibition (%) [4]: 0.2%

N[C@H]1C(O)O[C@H](CO)[C@@H](O)[C@@H]1O (stereo partly drawn) [D-Glucosamine]
Inhibition (%) [4]: 0%

OC[C@H]1OC(O)[C@@H](O)[C@@H](O)[C@@H]1O (stereo partly drawn) [D-Mannose]
Inhibition (%) [4]: 0.5%

OC1OC[C@@H](O)[C@H](O)[C@H]1O (stereo partly drawn) [D-Xylose]
Inhibition (%) [4]: 0%

CCN(CC)C(=S)S [Diethyldithiocarbamic acid]
Inhibition (%) ([9]; compound at 1 mM): 51.0%

O=C(O)CN(CCN(CC(=O)O)CC(=O)O)CC(=O)O [EDTA, ethylenediaminetetraacetic acid]
Inhibition (%) [9]: 67.6%
Inhibition of the enzyme in words [9]: inhibited

NO [Hydroxylamine]
Inhibition (%) ([9]; compound at 1 mM): 81.2%
Inhibition of the enzyme in words ([9]; summary of Table 3): inhibited

NC(=O)CI [Iodoacetamide]
Inhibition (%) ([9]; compound at 1 mM): 83.6%
Inhibition of the enzyme in words ([9]; summary of Table 3): inhibited

OC[C@H]1O[C@H](O[C@H]2C(O)O[C@H](CO)[C@@H](O)[C@@H]2O)[C@H](O)[C@@H](O)[C@@H]1O (stereo partly drawn) [Kojibiose]
Inhibition (%) [2]: 0%
Relative activity (%) [10]: 0%

C[C@@H]1OC(O)[C@@H](O)[C@H](O)[C@@H]1O (stereo partly drawn) [L-Fucose]
Inhibition (%) [4]: 0%

OC[C@H]1O[C@@H](O[C@H]2[C@H](O)[C@@H](O)C(O)O[C@@H]2CO)[C@H](O)[C@@H](O)[C@H]1O (stereo partly drawn) [Lactose]
Inhibition (%) [2]: 0%
Relative activity (%) [10]: 0%

OC[C@H]1O[C@H](O[C@H]2[C@H](O)[C@@H](O)[C@H](O)O[C@@H]2CO)[C@H](O)[C@@H](O)[C@@H]1O [Maltose]
Inhibition (%) [2]: 0%
Relative activity (%) [10]: 0%
Inhibition (%) [4]: 0%

CC(=O)N[C@H]1C(O)O[C@H](CO)[C@@H](O)[C@@H]1O (stereo partly drawn) [N-Acetyl-D-glucosamine]
Inhibition (%) [4]: 0%

O=C1CCC(=O)N1Br [N-Bromosuccinimide]
Inhibition (%) ([9]; compound at 1 mM): 23.4%

CCN1C(=O)C=CC1=O [N-Ethylmaleimide]
Inhibition (%) ([9]; compound at 1 mM): 21.9%

O=S(=O)([O-])[O-].[Ni+2] [NiSO4, nickel sulfate]
Inhibition (%) [9]: 62.1%
Inhibition of the enzyme in words [9]: inhibited

OC[C@H]1O[C@H](O[C@H]2[C@H](O)[C@@H](CO)OC(O)[C@@H]2O)[C@H](O)[C@@H](O)[C@@H]1O (stereo partly drawn) [Nigerose]
Inhibition (%) [2]: 0%
Relative activity (%) [10]: 0%

[N-]=[N+]=[N-] [Sodium azide]
Inhibition (%) ([9]; compound at 1 mM): 22.8%

OC[C@H]1O[C@@](CO)(O[C@H]2O[C@H](CO)[C@@H](O)[C@H](O)[C@H]2O)[C@@H](O)[C@@H]1O [Sucrose]
Inhibition (%) [2]: 0%
Relative activity (%) [10]: 0%
Inhibition (%) [4]: 0%

N[C@H]1[C@@H](O[C@H]2O[C@H](CO)[C@@H](O)[C@H](O)[C@H]2O)O[C@H](CO)[C@@H](O)[C@@H]1O [Trehalosamine]
Relative activity (%) [10]: 0.5%

OC[C@H]1O[C@H](O[C@H]2O[C@H](CO)[C@@H](O)[C@H](O)[C@H]2O)[C@H](O)[C@@H](O)[C@@H]1O [Trehalose]
Km ([3]; read-out: Km value of the enzyme): 6.7 mM
Substrate specificity in words ([10]; conclusion from Table 1): specifically acts on
Relative activity (%) [10]: 100%

O=S(=O)([O-])[O-].[Zn+2] [ZnSO4]
Inhibition (%) ([9]; compound at 1 mM): 53.4%

O=C(O)c1cc[c]([Hg][OH])cc1 [p-Mercuribenzoic acid]
Inhibition (%) ([9]; compound at 1 mM): 94.7%
Inhibition of the enzyme in words ([9]; summary of Table 3): inhibited
